The record followed here is PMC7867026, “Selina-1,3,7(11)-trien-8-one and Oxidoselina-1,3,7(11)-trien-8-one from Eugenia uniflora Leaf Essential Oil and Their Cytotoxic Effects on Human Cell Lines” (Molecules, 2021).

The nature of data set [1]: MTT cytotoxicity assay, HepG2. Conditions: human, HepG2 hepatoma carcinoma cells, HepG2, 48 h. It is filed as cell-based, human. The procedure:
(§1) The in vitro cytotoxic effect of 1 and 2 compounds were analyzed in relation to A549 (lung adenocarcinoma epithelial cells—BCRJ code: 0033), HepG2 (human hepatoma carcinoma cells—BCRJ code: 0291), and IMR90 (human lung fibroblast—BCRJ code: 0118) cell lines using MTT (3-(4,5-dimethylthiazol-2-yl)-2,5-diphenyl tetrazolium bromide) (Sigma-Aldrich, COD—M5655) assay. All cell lines were maintained in Dulbecco’s Modified Eagle’s Medium/Nutrient Mixture F-12 Ham (Sigma-Aldrich, COD—D8900), with added 10% fetal bovine serum (FBS, Gibco, COD—16000044) and 100 IU penicillin/100 µg streptomycin (Sigma-Aldrich, COD—P4333). The cell lines were grown in a humidified incubator at 37 °C containing 5% CO2. Briefly, the cells were seeded into 96-well plates at a density of 1 × 10^4 cells/well (HepG2 and A549), 5 × 10^3 cells/well (IMR90), 100 μL/well, and after 24 h, the cells were treated with 100 μL of serial concentrations (10–500 μM) of compounds 1 and 2 for 48 h. The stock solution of extracts contained 5% of dimethyl sulfoxide (DMSO) at a final concentration of 0.2% in cell medium for all in vitro assays. The IC50, GI50, and LC50 parameters were performed in accordance with the method described by do Carmo (2018), in which IC50 is the concentration of the agent that inhibits growth by 50%, calculated as (T/C) × 100 = 50, where T = number of cells at time t of treatment; C = control cells at time t of treatment; GI50 is the concentration of the agent that inhibits growth by 50% relative to untreated cells, calculated as ((T − T0)/(C − T0)) × 100 = 50, where T and C are the number of treated and control cells, respectively, at time t of treatment, and T > T0 where T0 is the number of cells at time zero; LC50 is the concentration of the agent that results in a net loss of 50% cells relative to the number at the start of treatment, calculated as ((T − T0)/T0) × 100 = −50, where T < T0. The experiments were conducted in quadruplicate on three different days to assure the reproducibility of the generated data.
A general note: Tetrazolium assays rely on reduction of a dye to a coloured formazan, in cell work by metabolically active cells.

Data set [2] relates to HepG2 (human hepatoma carcinoma cells). As to the kind of experiment: MTT cytotoxicity assay, HepG2. It is filed as cell-based. Conditions: Homo sapiens, HepG2, 48 h; for IC50: 10–500 μM, read-out: IC50 (cell viability); for GI50: read-out: GI50 (antiproliferative effect). The procedure: as §1
Data set [3] is described as follows: DPPH free-radical scavenging assay. Conditions: result in words; figure values in mg AAE/100 g not given. The class given is biochemical. The method, then: (§2) The free-radical scavenging activity of 1 and 2 in relation to the 2,2-diphenyl-1-picrylhydrazyl (DPPH) radical was measured using the colorimetric method described by Brand-Williams (1995), and the results are expressed in mg of ascorbic acid equivalent per 100 g of material (AAE/100 g). To evaluate the capacity of hydrogen atom transfer (HAT) of the isolated compounds, male Wistar rat brain homogenate was used as substrate for the production of thiobarbituric acid reactive substances (TBARS) produced by Fe^2+-induced oxidation undertaken at 37 °C, following the experimental conditions described elsewhere. The inhibition of lipid peroxidation was expressed as % of inhibition. The animal protocol was approved by the Ethics Committee (UEPG, protocol 47/2017).
In general terms: DPPH is a stable violet radical that fades when it is reduced.

Data set [4] has as its system IMR90 (human lung fibroblast). As to the kind of experiment: MTT cytotoxicity assay, IMR90. The class given is cell-based. The note with it: Homo sapiens, IMR-90, IMR90, 48 h; for IC50: 10–500 μM, read-out: IC50 (cell viability); for GI50: read-out: GI50 (antiproliferative effect). The method, then: as §1
Data set [5] can be described thus: MTT cytotoxicity assay, IMR90. The class given is cell-based, human. Conditions: human, IMR90 lung fibroblasts, IMR90, 48 h, read-out: LC50 (cell death). The method, then: as §1
A further data set relates to IMR90 normal cells. As to the kind of experiment: Intracellular ROS measurement (DCFH-DA fluorescence), IMR90. Conditions: IMR90, 10, 50 and 100 μM (legend; method says μg/mL), 1 h. It is filed as cell-based, human. The procedure:
(§3) In order to assess the in vitro antioxidant/oxidant potential of 1 and 2, intracellular ROS generation was measured using a fluorescence technique as described by Carmo (2019). Briefly, A549 cancer cells (6 × 10^4/well) and IMR90 normal cells (2 × 10^4/well) were exposed to concentrations of 10, 50, and 100 μg/mL of 1 and 2 compounds, culture medium (negative control), and 15 μmol/L H2O2 (positive control), for 1 h in DCFH-DA solution ([…]), at 37 °C and 5% CO2. Subsequently, cells were washed with PBS and a H2O2 solution (15 μmol/L) added for recording of fluorescence. Intracellular fluorescence intensity of cells was measured at an excitation wavelength of 485 nm and at an emission wavelength of 538 nm. The assays were performed in quadruplicate on three different days.

Data set [6] concerns A549 (lung adenocarcinoma epithelial cells). As to the kind of experiment: MTT cytotoxicity assay, A549. The class given is cell-based, human. The note with it: Homo sapiens, A549, 48 h; for IC50: 10–500 μM, read-out: IC50 (cell viability); for GI50: read-out: GI50 (antiproliferative effect). The procedure:
as §1

Data set [7] in a line: MTT cytotoxicity assay, A549. It is filed as cell-based, human. The note with it: human, A549 lung adenocarcinoma epithelial cells, A549, 48 h. The procedure: as §1
Data set [8] relates to Wistar rat brain homogenate. As to the kind of experiment: Inhibition of lipid peroxidation (TBARS, Fe2+-induced oxidation) in rat brain homogenate. It is filed as biochemical. Conditions: at 40 mg/L. The procedure:
as §2

A further data set has as its system A549 cancer cells. As to the kind of experiment: Intracellular ROS measurement (DCFH-DA fluorescence), A549. It is filed as cell-based, human. The note with it: A549, 10, 50 and 100 μM (legend; method says μg/mL), 1 h. The method, then: as §3

What is called IC50 is the concentration that inhibits the measured activity by half. What is called GI50 is the concentration at which growth is held to half of that of the control.

Regarding `CC1=CC=C[C@]2(C)CC(=O)C(=C(C)C)C[C@H]12` (relative stereo) [Compound 1, selina-1,3,7(11)-trien-8-one], the LC50 (concentration causing 50% cell death) at 48 h in data set [1] and in data set [7] was over 500 µM each time. Also, the IC50 in [2], in [4] and in data set [6] was over 500 µM throughout. Also, the results for the GI50 in [2], in data set [4] and in [6] were 289 µM, 185 µM and 591 µM, respectively. In addition, the “free-radical scavenging activity (DPPH assay)” value in data set [3] is reported as “insignificant free-radical scavenging activity”. The CC50 at 48 h in [5] is over 500 µM. Also, the “intracellular ROS generation” value with IMR90 normal cells and in the data set with A549 cancer cells was “inducing reactive oxygen species (ROS) generation” throughout. Besides, in [8], the “inhibition of lipoperoxidation in rat brain homogenate” value is given as “did not show inhibitory activity”.

On to `CC1=COC=C[C@]2(C)CC(=O)C(=C(C)C)C[C@H]12` (relative stereo) [Compound 2, oxidoselina-1,3,7(11)-trien-8-one], for which the IC50 in [2] was 525 µM; in data set [4], over 500 µM; in [6], over 500 µM. In addition, the GI50 in [2] came to 97.5 µM; in data set [4] it was 14.9 µM; in data set [6], 359 µM. Moreover, the “free-radical scavenging activity (DPPH assay)” value in data set [3] was “insignificant free-radical scavenging activity”. For the same molecule, the CC50 at 48 h in data set [5] is over 500 µM. In addition, the “intracellular ROS generation” value with IMR90 normal cells and in the data set on A549 cancer cells was “inducing reactive oxygen species (ROS) generation” in each case. For the same molecule, the “inhibition of lipoperoxidation in rat brain homogenate” value in [8] is given as “did not show inhibitory activity”.
